The source of these data is patent US20240182472A1, “INDAZOLE PYRIDONE COMPOUNDS AND USES THEREOF” (Bluejay Therapeutics, Inc., priority 2022, published 2024).

The test system of series [1] is HBV S-antigen secretion. As to the kind of experiment: HBsAg assay (HepG2 HBV S-antigen secretion biological assay). It is filed as cell-based. Particulars: Hepatitis B virus, HepG2.2.15, 72 h, read-out: EC50, HBV S-antigen secretion. The method, then:
HepG2.2.15 cells were grown in flasks microscopically and seeded into 96-well plates at a concentration of 6.0×10^4 cells/well and incubated at 37° C., 5% CO2 overnight.
Source plate preparation. The stock concentration of reference compound and test compounds is 20 mM. Firstly, manually diluted the compound to obtain the first concentration points of 10 μM and 200 μM, respectively. Then a 3-fold, 8 points serial dilution is performed to obtain the 200× source plate.
Source plate compounds were pipetted as follows: 3 μL 200× source plate compounds into sterile 2 mL 96 well plate which contain 297 μL 2% FBS Medium, mix well and transfer 100 μL/well to corresponding cell culture plates. Therefore, the test conditions of the final compounds is 1 μM initiation, 3-fold serial dilution, and 8 concentration points in duplicate.
Incubate the cells at 37° C., 5% CO2 for three days.
24 hours post-seeding, the cells were treated with 200 μl/well of media containing serially diluted compounds in DMSO. DMSO alone was used as the no drug control. The final DMSO concentration in all wells was 0.5%.
The HBsAg kit (Auto Biology-CL 0310) was used to determine the level of secreted HBVsAg. The HBSAg assay was performed as follows: • a) Blance the ELISA kit at room temperature for 30 minutes. • b) Add 50 μL standard solution, sample, positive and negative control to each well of the microplate in the kit. • c) Add 50 μL HBsAg enzyme conjugate to each well. • d) Attach the plate membrane, oscillate for 60 seconds, and incubate at 37° C. for 60 minutes. • e) Add 350 μL washing buffer to each well, shake slightly, discard liquid, repeat 6 times. Then pat 5 times on an absorbent paper towel to dry the hole. • f) Add 50 μL mixture of reagent A and B to each well. Oscillate the microplate for 10 seconds. • g) Cover the plate membrane and incubate at room temperature for 10 minutes. Read the luminescent signal using Biotek-Synergy 2.
Compounds inhibition against HBsAg at different concentrations are calculated by the following formula:
Inhibition %=(1−value of sample/ave. value of control)×100
50% effective concentrations (EC50) and were calculated with the GraphPad Prism software.

Series [2] deals with T1, OATP1B1 (Homo sapiens, UniProt Q9Y6L6).
T1 construct: host or cells: HEK293 (HEK293-OATP1B1), stably transfected
T1 sequence (Q9Y6L6 1-691): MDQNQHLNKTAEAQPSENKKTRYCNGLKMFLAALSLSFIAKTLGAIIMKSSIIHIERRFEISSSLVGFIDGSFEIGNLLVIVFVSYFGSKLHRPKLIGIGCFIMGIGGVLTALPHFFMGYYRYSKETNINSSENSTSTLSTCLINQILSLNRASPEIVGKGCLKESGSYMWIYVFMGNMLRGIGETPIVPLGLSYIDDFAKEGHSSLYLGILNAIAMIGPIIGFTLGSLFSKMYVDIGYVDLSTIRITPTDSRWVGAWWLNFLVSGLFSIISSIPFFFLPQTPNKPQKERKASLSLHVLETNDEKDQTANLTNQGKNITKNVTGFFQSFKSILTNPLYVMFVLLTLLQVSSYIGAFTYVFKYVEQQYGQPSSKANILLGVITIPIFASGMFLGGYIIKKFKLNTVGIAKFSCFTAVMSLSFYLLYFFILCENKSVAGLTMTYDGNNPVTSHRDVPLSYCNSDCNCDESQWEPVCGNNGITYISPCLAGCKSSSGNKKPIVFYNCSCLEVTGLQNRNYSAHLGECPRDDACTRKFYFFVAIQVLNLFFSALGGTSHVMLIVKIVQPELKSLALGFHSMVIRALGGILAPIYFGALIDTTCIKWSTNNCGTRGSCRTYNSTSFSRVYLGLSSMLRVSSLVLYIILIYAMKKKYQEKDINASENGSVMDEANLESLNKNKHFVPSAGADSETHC
The series is classed as in vitro ADME. Here is the method: (§1) The OATP1B1 and OATP1B3 substrate assays were conducted at Wuxi utilizing the human embryonic kidney cell line, HEK293, stably transfected with human transporter genes. The identification of potential transporter substrates are achieved by measuring the Uptake Fold values in the transfected HEK293-OATP1B1 and OATP1B3 cells line and the HEK293-MOCK cell line in the Presence and Absence of positive inhibitors.
(§2) The objective of this study was to determine whether Compound I.2 and Compound I.6 are potential OATP1B1 and OATP1B3 uptake substrates.
(§3) HEK-293 cells stably expressing the human OATP1B1 and OATP1B3 transporter and the HEK293-MOCK cell line were licensed from GenoMembrane (Kanagawa, Japan). The culture medium was DMEM (HEK293-OATP1B3 cells were maintained in DMEM/F12) supplemented with 10.0% FBS, 500 μg/mL G418 sulfate solution, 100 U/mL penicillin-G and 100 μg/mL streptomycin. Cells were incubated in 5.0% CO2 at 37.0° C. with saturated humidity. HEK293-OATP1B1 (Passage: 19), OATP1B3 (Passage: 19), and HEK293-MOCK (Passage: 14 and 16) were grown to 80.0 to 90.0% confluence in the culture flask. Trypsin/EDTA (0.05%/0.02%, w/v) was added to detach the cells from the flask. The cells were seeded onto 96-well plates with a density of 5.00×10^4 cells/well, and then incubated for 24 hours in 5.0% CO2 at 37.0° C. with saturated humidity before being used in the uptake study.
(§4) Pre-incubation: Cell culture medium was removed from the 96-well plates seeded with either HEK293-OATP1B1 and OATP1B3 or HEK293-MOCK cells, followed by rinsing the cells twice with the warm (37.0° C.) Transport Buffer. The cells were then pre-incubated for 30 min with the Transport Buffer in the Presence and Absence of positive inhibitors in 5.0% CO2 at 37.0° C. with saturated humidity.
(§5) Uptake incubation: At the end of the pre-incubation, the buffers were removed and the cells were treated with Compound I.6 or Compound I.2 at 0.100 or 1.00 μM in the presence and absence of positive inhibitor. In separate wells, the marker substrate for transporter cells were incubated with dosing solution (Table A), all treatments were conducted in triplicate wells in 5.0% CO2 at 37.0° C. with saturated humidity.
(§6) Cell lysing: At the end of the incubations, dosing solution was removed. After removing the remaining dosing solution, the cell was rinsed three times with ice-cold Transport Buffer (2.0-8.0° C.) followed by adding 100 μL cold acetonitrile:methanol (95: 5, v: v) containing internal standard into the cells treated with test compound for bioanalysis. For the cells dosed with positive control, the cells were added 100 μL cold acetonitrile:methanol (95:5, v: v) containing internal standard for bioanalysis. All samples were gently shaken for 30 min. Then for test compound and positive control, 75 μL of the cell lysate was mixed with 75 μL of Transport Buffer and 150 μL of cold acetonitrile:methanol (95:5, v:v) containing internal standard. The lysis sample was centrifuged for 10 min at 3220×g before the supernatant, defined as the terminal sample, was taken for the determination of the intracellular uptake of the test compounds or substrate by LC-MS/MS.
(§7) Uptake Fold was calculated using equation (1)

The target in series [3] is T2, OATP1B3 (Homo sapiens, UniProt Q9NPD5).
T2 construct: host or cells: HEK293 (HEK293-OATP1B3), stably transfected
T2 sequence (Q9NPD5 1-702): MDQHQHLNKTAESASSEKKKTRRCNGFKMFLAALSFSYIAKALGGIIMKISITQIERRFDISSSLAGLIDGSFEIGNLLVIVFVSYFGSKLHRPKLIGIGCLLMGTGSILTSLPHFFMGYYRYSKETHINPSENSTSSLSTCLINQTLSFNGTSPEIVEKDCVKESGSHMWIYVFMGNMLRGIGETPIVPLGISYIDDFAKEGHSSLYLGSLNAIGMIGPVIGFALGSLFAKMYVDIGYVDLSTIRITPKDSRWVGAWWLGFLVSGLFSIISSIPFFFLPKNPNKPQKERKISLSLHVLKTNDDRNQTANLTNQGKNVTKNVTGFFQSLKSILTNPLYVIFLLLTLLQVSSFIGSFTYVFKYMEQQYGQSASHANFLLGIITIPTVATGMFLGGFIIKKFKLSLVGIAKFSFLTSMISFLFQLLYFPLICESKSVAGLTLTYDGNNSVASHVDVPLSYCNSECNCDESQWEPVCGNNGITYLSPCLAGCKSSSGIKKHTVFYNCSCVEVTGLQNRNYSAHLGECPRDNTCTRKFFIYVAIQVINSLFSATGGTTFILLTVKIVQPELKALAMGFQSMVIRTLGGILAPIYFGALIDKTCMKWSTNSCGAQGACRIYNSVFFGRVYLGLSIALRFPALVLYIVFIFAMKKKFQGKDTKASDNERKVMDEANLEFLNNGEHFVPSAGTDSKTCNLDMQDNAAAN
It is filed as in vitro ADME. The method, then: as §1, §2, §3, §4, §5, §6, §7

The conditions of series [4]: cited from earlier work.
For series [5] the following is noted: monkeys, starting at 4 weeks, more pronounced effect at 13 weeks; cited from earlier work.

Where two headings read alike, the source gives them in different places.

For `CC(C)(C)[C@@H]1Cn2nc3c(OCCCCCCCC(=O)O)cccc3c2-c2cc(=O)c(C(=O)O)cn21` [I.6, (R)-6-(tert-butyl)-10-((7-carboxyheptyl)oxy)-2-oxo-6,7-dihydro-2H-pyrido[2′,1′:3,4]pyrazino[1,2-b]indazole-3-carboxylic acid], the EC50 in series [1] worked out at 2.6 ± 0.6 nM. Further, the Uptake ratio was determined as 11.5 in series [2] (0.1 μM), 18.2 in series [2] (1 μM), 1.74 in series [3] (0.1 μM) and 4.9 in series [3] (1 μM).
Regarding `COCCOc1cc2c(cc1COC)-c1cc(=O)c(C(=O)O)cn1N1[C@@H]2CCC1(C)C` [GS-8873], the “change from baseline of rat caudal nerve NCV, digital NCV, cauda equina latency, digital latency, tibial nerve latency” value in series [4] (13 weeks, daily doses 20 MPK/day and 60 MPK/day) is “greater than 20%”. The “nerve conduction velocity (NCV) of several peripheral nerves” value in series [4] (rats, starting at 4 weeks, more pronounced effect at 13 weeks) is recorded as “prolong the nerve conduction velocity”; in series [5], “prolong the nerve conduction velocity”.
For `CC(C)(C)[C@@H]1Cn2nc3c(OCCCCCCC(=O)O)cccc3c2-c2cc(=O)c(C(=O)O)cn21` [I.2, (R)-6-(tert-butyl)-10-((6-carboxyhexyl)oxy)-2-oxo-6,7-dihydro-2H-pyrido[2′,1′:3,4]pyrazino[1,2-b]indazole-3-carboxylic acid], the concentration giving a half-maximal response (EC50) in series [1] stood at 6.5 ± 2.5 nM. Besides, the Uptake ratio in series [2] (0.1 μM) turned out to be 2.87; in series [2] (1 μM), 1.10; in series [3] (0.1 μM) it was 2.23; in series [3] (1 μM) it was 2.34.
